From patent US5528046A, “Method and device for determining the location and number of fluorescent molecules” (Hamamatsu Photonics K.K., priority 1992, dated 1996)

How the values were obtained:
[1] = biological target: streptavidin (SA), tetramer (Streptomyces avidinii, UniProt P22629); conditions: cited from earlier work
bovine serum albumin = bovine serum albumin (Bos taurus, UniProt P02769); assay: Affinity of bovine serum albumin for FLB (FLB absorption spectrum); type: binding; conditions: causes no changes to FLB spectrum
Description: Foster and Konig report that is has been found based on changes of absorption spectra of some organic dye molecules (fluorescent molecules) containing a fluorescent substrate in water that the organic dye molecules form dimers at high concentration (10^-3 -10^-1 M). Koizumi and Mataga report a change of absorption spectrum in an aqueous solution containing fluorescent molecules in the presence of electrolytic polymers. Based on these studies, it is considered that changes of the spectra are caused by the cohesive effect of the fluorescent molecules to the polymers. Considering these past studies and the bonding between SA and B due to their high affinity, it is considered that similarly sufficient local adhesion effects of FLB to SA can be present. This is further optical evidence of the interaction between SA and FLB. For example, bovine serum albumin, which has no affinity with FLB, causes no changes to FLB spectrum.

bovine serum albumin, sequence (P02769 25-607): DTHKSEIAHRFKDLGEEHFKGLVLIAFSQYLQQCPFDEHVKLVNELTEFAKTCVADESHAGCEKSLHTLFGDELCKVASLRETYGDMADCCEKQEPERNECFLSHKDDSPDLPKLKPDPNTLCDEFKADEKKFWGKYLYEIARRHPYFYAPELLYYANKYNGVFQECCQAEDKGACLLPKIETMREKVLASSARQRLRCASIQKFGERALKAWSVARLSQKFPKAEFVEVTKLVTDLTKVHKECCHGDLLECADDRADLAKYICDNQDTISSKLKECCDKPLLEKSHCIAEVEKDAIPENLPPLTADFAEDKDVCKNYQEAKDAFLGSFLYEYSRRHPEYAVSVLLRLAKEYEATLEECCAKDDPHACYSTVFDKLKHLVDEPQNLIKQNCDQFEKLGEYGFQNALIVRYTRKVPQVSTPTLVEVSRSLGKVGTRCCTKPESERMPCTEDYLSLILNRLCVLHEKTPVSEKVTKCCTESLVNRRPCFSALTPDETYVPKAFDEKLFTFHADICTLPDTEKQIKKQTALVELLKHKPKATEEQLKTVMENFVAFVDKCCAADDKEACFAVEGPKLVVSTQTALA
streptavidin (SA), tetramer, sequence (P22629 25-183): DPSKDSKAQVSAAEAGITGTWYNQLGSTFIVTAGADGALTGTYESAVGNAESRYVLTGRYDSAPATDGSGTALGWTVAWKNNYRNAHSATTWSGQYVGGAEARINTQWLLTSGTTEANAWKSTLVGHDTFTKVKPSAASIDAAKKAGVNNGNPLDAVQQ

Structure (SMILES)	lifetime of the SA/B complex [1]	affinity with FLB (bovine serum albumin)
O=C(O)CCCC[C@@H]1SC[C@@H]2NC(=O)N[C@@H]21 [B, biotin]	about 2.9 days	–
O=C(CCCCCNC(=O)CCCC[C@@H]1SC[C@@H]2NC(=O)N[C@@H]21)NCCCCCNC(=S)Nc1ccc2c(c1)C(=O)OC21c2ccc(O)cc2Oc2cc(O)ccc21 [FLB, fluorescein biotin]	–	no affinity
